Columns and labels:
[1] = DRUGMATRIX: Calcium Channel Type L, Phenylalkylamine radioligand binding (ligand: [3H] (-)-Desmethoxyverapamil (D-888)); type: cell membranes, Rattus norvegicus, Wistar, Brain, Membrane; conditions: Not Active = under 50% inhibition at 10 µM
[2] = molecular target: Aldo-keto reductase family 1 member B1 (Rattus norvegicus, UniProt P07943); test: biochemical; type: tissue-based, Lens of camera-type eye;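 further: inhibition of aldose reductase enzyme activity, measured with DL-glyceraldehyde as the substrate; in other assays of this panel Not Active means under 50% inhibition at 10 µM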
[3] = DRUGMATRIX: Glutamate, AMPA radioligand binding (ligand: [3H] AMPA); type: cell membranes, Rattus norvegicus, Wistar, Cerebral cortex, Membrane; conditions: Not Active = under 50% inhibition at 10 µM
[4] = molecular target: Matrix metalloproteinase-9 (Homo sapiens, UniProt P14780); type: cell-based;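 further: inhibition of isolated MMP-9 enzyme activity toward a synthetic peptide substrate, from the DrugMatrix protease screening panel; in other assays of this panel Not Active means under 50% inhibition at 10 µM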
Matrix metalloproteinase-9, sequence (P14780 whole entry): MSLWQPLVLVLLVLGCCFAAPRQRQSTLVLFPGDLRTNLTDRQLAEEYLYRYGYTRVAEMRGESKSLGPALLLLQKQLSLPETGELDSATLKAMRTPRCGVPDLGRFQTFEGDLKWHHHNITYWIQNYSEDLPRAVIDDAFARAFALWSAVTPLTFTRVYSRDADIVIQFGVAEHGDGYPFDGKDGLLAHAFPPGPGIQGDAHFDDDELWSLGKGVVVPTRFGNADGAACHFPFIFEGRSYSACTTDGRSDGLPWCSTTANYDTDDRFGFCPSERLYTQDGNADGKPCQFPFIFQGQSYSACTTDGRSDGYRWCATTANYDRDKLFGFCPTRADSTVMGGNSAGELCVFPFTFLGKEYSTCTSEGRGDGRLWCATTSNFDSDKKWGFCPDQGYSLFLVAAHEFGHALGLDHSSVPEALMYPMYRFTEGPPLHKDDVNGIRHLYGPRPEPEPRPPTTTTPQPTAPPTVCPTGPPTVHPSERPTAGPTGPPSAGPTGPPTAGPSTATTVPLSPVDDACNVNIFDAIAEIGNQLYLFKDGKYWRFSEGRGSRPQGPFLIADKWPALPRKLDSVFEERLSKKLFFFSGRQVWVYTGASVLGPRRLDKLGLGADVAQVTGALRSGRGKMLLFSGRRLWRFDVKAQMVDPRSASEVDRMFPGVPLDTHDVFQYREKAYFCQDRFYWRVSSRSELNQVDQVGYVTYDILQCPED

[5] = DRUGMATRIX: ATPase, Na+/K+ enzyme inhibition (substrate: ATP); type: tissue-based, Sus scrofa, Heart; conditions: Not Active = under 50% inhibition at 10 µM
[6] = molecular target: Beta-3 adrenergic receptor (Homo sapiens, UniProt P13945); test: DRUGMATRIX: Adrenergic beta3 radioligand binding (ligand: [125I] Cyanopindolol); type: cell membranes, HEK293, Membrane; conditions: hek293; Not Active = under 50% inhibition at 10 µM
Beta-3 adrenergic receptor, sequence (P13945 whole entry): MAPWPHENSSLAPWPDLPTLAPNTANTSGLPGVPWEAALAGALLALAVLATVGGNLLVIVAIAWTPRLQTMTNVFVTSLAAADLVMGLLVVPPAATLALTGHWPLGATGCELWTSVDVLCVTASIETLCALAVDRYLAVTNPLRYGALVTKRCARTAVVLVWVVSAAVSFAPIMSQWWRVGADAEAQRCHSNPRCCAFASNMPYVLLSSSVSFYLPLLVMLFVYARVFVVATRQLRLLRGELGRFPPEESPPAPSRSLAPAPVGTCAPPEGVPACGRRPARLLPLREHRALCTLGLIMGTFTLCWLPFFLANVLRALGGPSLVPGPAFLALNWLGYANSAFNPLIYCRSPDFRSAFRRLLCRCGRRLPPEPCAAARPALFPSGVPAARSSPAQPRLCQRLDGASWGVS

[7] = molecular target: 5-hydroxytryptamine receptor 4 (Cavia porcellus, UniProt O70528); type: cell membranes, Dunkin-Hartley, Striatum, Membrane; further: in other assays of this panel Not Active means under 50% inhibition at 10 µM
5-hydroxytryptamine receptor 4, sequence (O70528 whole entry): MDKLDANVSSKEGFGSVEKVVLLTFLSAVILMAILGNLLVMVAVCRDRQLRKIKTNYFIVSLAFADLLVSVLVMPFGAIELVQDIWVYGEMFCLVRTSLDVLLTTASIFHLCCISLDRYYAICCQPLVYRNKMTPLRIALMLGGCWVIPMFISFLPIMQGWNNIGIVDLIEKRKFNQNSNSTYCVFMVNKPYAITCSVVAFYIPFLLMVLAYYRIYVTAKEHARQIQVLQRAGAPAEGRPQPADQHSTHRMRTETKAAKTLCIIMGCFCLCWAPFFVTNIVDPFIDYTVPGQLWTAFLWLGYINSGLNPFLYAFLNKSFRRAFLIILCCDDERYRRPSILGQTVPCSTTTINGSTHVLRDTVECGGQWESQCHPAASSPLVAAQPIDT

SMILES | IC50 [1] | Ki [1] | IC50 [2] | IC50 [3] | Ki [3] | IC50 [4] | IC50 [5] | Ki [5] | IC50 [6] | IC50 [7] | IC50 ([1]; read-out: IC50) [µM] | Ki ([1]; read-out: Ki) [µM] | IC50 ([2]; read-out: IC50) [µM]
C[C@H]1COc2c(N3CCN(C)CC3)c(F)cc3c(=O)c(C(=O)O)cn1c23.C[C@H]1COc2c(N3CCN(C)CC3)c(F)cc3c(=O)c(C(=O)O)cn1c23.O [LEVOFLOXACIN] | Not Active | Not Active | Not Active | Not Active | Not Active | Not Active | Not Active | Not Active | Not Active | Not Active | – | – | –
COc1ccnc(C[S+]([O-])c2nc3ccc(OC(F)F)cc3[nH]2)c1OC (stereo not given) [PANTOPRAZOLE] | Not Active | Not Active | Not Active | Not Active | Not Active | Not Active | Not Active | Not Active | Not Active | Not Active | – | – | –
CCCCC1=NC2(CCCC2)C(=O)N1Cc1ccc(-c2ccccc2-c2nnn[nH]2)cc1 [IRBESARTAN] | Not Active | Not Active | Not Active | Not Active | Not Active | Not Active | Not Active | Not Active | Not Active | Not Active | – | – | –
COC(=O)Nc1nc2cc(C(=O)c3ccc(F)cc3)ccc2[nH]1 [FLUBENDAZOLE] | Not Active | Not Active | Not Active | Not Active | Not Active | Not Active | Not Active | Not Active | Not Active | Not Active | – | – | –
CN(C)CCC=C1c2ccccc2CCc2ccccc21 [AMITRIPTYLINE] | – | – | Not Active | Not Active | Not Active | Not Active | Not Active | Not Active | Not Active | Not Active | 0.84 | 0.816 | –
Cc1ccc(C)c(OCCCC(C)(C)C(=O)O)c1 [GEMFIBROZIL] | Not Active | Not Active | Not Active | Not Active | Not Active | Not Active | Not Active | Not Active | Not Active | Not Active | – | – | –
C[N+](C)(C)C[C@H](O)CC(=O)[O-] [LEVOCARNITINE] | Not Active | Not Active | Not Active | Not Active | Not Active | Not Active | Not Active | Not Active | Not Active | Not Active | – | – | –
CNC1=Nc2ccc(Cl)cc2C(c2ccccc2)=[N+]([O-])C1 [CHLORDIAZEPOXIDE] | Not Active | Not Active | Not Active | Not Active | Not Active | Not Active | Not Active | Not Active | Not Active | Not Active | – | – | –
CC(O)COC[C@H]1O[C@@H]2O[C@H]3[C@H](O)[C@@H](O)[C@@H](O[C@H]4[C@H](O)[C@@H](O)[C@@H](O[C@H]5[C@H](O)[C@@H](O)[C@@H](O[C@H]6[C@H](O)[C@@H](O)[C@@H](O[C@H]7[C@H](O)[C@@H](O)[C@@H](O[C@H]8[C@H](O)[C@@H](O)[C@@H](O[C@H]1[C@H](O)[C@H]2O)O[C@@H]8COCC(C)O)O[C@@H]7COCC(C)O)O[C@@H]6COCC(C)O)O[C@@H]5COCC(C)O)O[C@@H]4COCC(C)O)O[C@@H]3COCC(C)O (stereo partly drawn) [2-HYDROXYPROPYL-BETA-CYCLODEXTRIN] | Not Active | Not Active | Not Active | Not Active | Not Active | Not Active | Not Active | Not Active | Not Active | Not Active | – | – | –
C[C@]12CC[C@@H]3c4ccc(O)cc4CC[C@H]3[C@@H]1C[C@@H](O)[C@@H]2O [ESTRIOL] | Not Active | Not Active | Not Active | Not Active | Not Active | Not Active | Not Active | Not Active | Not Active | Not Active | – | – | –
O=C(O)P(=O)(O)O [FOSCARNET] | Not Active | Not Active | Not Active | Not Active | Not Active | Not Active | Not Active | Not Active | Not Active | Not Active | – | – | –
CC1=NN(c2ccccc2)C(=O)C1 [EDARAVONE] | Not Active | Not Active | Not Active | Not Active | Not Active | Not Active | Not Active | Not Active | Not Active | Not Active | – | – | –
CCCNC(C)C(=O)Nc1ccccc1C (stereo not given) [PRILOCAINE] | Not Active | Not Active | Not Active | Not Active | Not Active | Not Active | Not Active | Not Active | Not Active | Not Active | – | – | –
C[C@@H]1C/C=C/C=C/C=C/C=C/[C@H](O[C@@H]2O[C@H](C)[C@@H](O)[C@H](N)[C@@H]2O)C[C@@H]2O[C@](O)(C[C@@H](O)C[C@H]3O[C@@H]3/C=C/C(=O)O1)C[C@H](O)[C@H]2C(=O)O [NATAMYCIN] | Not Active | Not Active | Not Active | Not Active | Not Active | Not Active | Not Active | Not Active | Not Active | Not Active | – | – | –
C[C@H]1O[C@H](O[C@H]2[C@H](O)[C@@H](O)[C@@H](O[C@H]3[C@H](O)[C@@H](O)C(O)O[C@@H]3CO)O[C@@H]2CO)[C@H](O)[C@@H](O)[C@@H]1N[C@H]1C=C(CO)[C@@H](O)[C@H](O)[C@H]1O (stereo not given in full) [ACARBOSE] | Not Active | Not Active | Not Active | Not Active | Not Active | Not Active | Not Active | Not Active | Not Active | Not Active | – | – | –
CN(C)C(=N)NC(=N)N [METFORMIN] | Not Active | Not Active | Not Active | Not Active | Not Active | Not Active | Not Active | Not Active | Not Active | Not Active | – | – | –
CCc1ccc(CCOc2ccc(CC3SC(=O)NC3=O)cc2)nc1 (stereo not given) [PIOGLITAZONE] | Not Active | Not Active | – | Not Active | Not Active | Not Active | Not Active | Not Active | Not Active | Not Active | – | – | 13.2
CN1CCN(C(c2ccccc2)c2ccccc2)CC1 [CYCLIZINE] | – | – | Not Active | Not Active | Not Active | Not Active | Not Active | Not Active | Not Active | Not Active | 4.64 | 4.51 | –
Cn1c(=O)c2c(ncn2C)n(C)c1=O [CAFFEINE] | Not Active | Not Active | Not Active | Not Active | Not Active | Not Active | Not Active | Not Active | Not Active | Not Active | – | – | –
COc1cc(OC)c(C(=O)CCCN2CCCC2)c(OC)c1 [BUFLOMEDIL] | Not Active | Not Active | Not Active | Not Active | Not Active | Not Active | Not Active | Not Active | Not Active | Not Active | – | – | –

Reference: ChEMBL document CHEMBL1909046, “DrugMatrix in vitro pharmacology data”
